Consider 7 substances from patent publication US20050164182A1, “Nucleotide analogues” (priority 2001, published 2005).

In experiment [1] the target is T1, subtilisin (Subtilopeptidase A, type VIII) (Bacillus licheniformis, UniProt P00780).
T1 construct: purchased Sigma Chemical Co. UK
T1 sequence (P00780 106-379): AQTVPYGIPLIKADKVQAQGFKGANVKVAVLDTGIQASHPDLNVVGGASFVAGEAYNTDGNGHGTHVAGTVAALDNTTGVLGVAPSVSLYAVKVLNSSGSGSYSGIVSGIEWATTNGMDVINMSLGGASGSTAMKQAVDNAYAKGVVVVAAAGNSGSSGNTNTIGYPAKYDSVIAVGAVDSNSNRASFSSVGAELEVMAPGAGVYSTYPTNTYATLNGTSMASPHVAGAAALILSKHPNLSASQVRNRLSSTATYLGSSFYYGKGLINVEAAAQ
The experiment is described as follows: Protease mediated cleavage of FamHex-GGL-β-A-2′dU, HPLC and MALDI-TOF analysis. Type of experiment: biochemical. As to conditions: 2 hours at 37° C., pH 7.5. The protocol:
A 10 μg aliquot of the substrate FAMHEX-GGL-β-A 2′dU (compound 6 above) was dissolved in 0.1M sodium acetate buffer pH 7.5 containing 5 mM calcium acetate. The substrate solution was digested at 37° C. for 2 hours in 200 μl in the presence of 0.5 units of subtilisin (Subtilopeptidase A, type VIII, Sigma Chemical Co. UK).
The resulting digest was ultrafiltered using a Microcon YM10 Concentrator (Milipore Ltd., UK) and the filtrate analysed by HPLC (Gilson 170, Gilson, UK) on a Sephasil™ peptide C-18 column (Amersham Biosicences, UK). […] These eluted at 29.8 (I), 32.6 (II), 26.7 (III) and 37.1 (IV) minutes on an acetonitrile gradient of 50% to 70%. The peaks were collected and analysed by MALDI-TOF mass spectrometry (Bruker Biflex II, Brucker, Germany). A matrix of 10 mg/ml 3-hydroxycinnamic acid in acetonitrile and 1% TFA was used for the analysis. The mass spectrometer was calibrated with 100 mM Bradykinin 1-7 (Sigma Chemical Co., UK).

In experiment [2] the test system is Thermosequenase. The experiment is described as follows: Primer extension reactions: incorporation of fluorescently labelled deoxynucleotide triphosphates by DNA polymerase. The experiment is classed as biochemical. As to conditions: number of consecutive fluor-labelled nucleotides added; templates with 2, 3 or 8 consecutive A residues; 48° C. for 45 minutes.

Entries after “also recorded” stand apart in the source; their conditions may differ.

Take “5-N-[N-(6-Fluorescein-5(and 6)carboxamidohexanoyl)-Gly-Gly-Leu-β-alanyl]-propargylamino-2′-deoxyuridine [Compound 6]”: in experiment [1], the “cleavage of the linker by subtilisin” value is “consistent with the cleavage of the linker by the subtilisin enzyme; also recorded: readily digested by subtilisin”. Also, the “site of hydrolysis by subtilisin” value in experiment [1] (molecular ion of 717 in peak II) was “at the peptide bond on the carboxyl side of the leucine residue; also recorded: cleaves at the leucine residue”.
Take “Alexa Fluor 568-5-dUTP [Alexa 568-5-dUTP]”: in experiment [2], the “predominant product with templates 3, 4 and 5” value (from here on “predominant product”) was “One addition”.
For the substance “Alexa Fluor 594-5-dUTP [Alexa 594-5-dUTP]”, in experiment [2], the “predominant product” value is “One addition”.
Cy3 dUTP: in experiment [2], the “predominant product” value is on record as “One addition, with minor two additions”.
Consider Cy5 dUTP, for which, in experiment [2], the “predominant product” value was “One addition, with minor two additions”.
Still for that read-out and setting: then Lissamine-5-dUTP, with “One addition, with very slight two additions”.
Texas Red-5-dUTP: the “predominant product” value in experiment [2] was “One addition, with very slight two additions”.
